Read-outs that look alike come from different tables or passages of the source. Some results are limits rather than exact numbers.

Assay [1] concerns Magnaporthe grisea (Pyricularia oryzae—PYRIOR). Nature of the assay: microbe, parasite or virus in culture. Type of assay: cell-based. The settings on record: Pyricularia oryzae, read-out: PYRIOR in vitro Growth Inhibition.
Assay [2] has as its system Rhizoctonia solani (RHIZSO). Briefly: microbe, parasite or virus in culture. Type of assay: cell-based. To be noted: Rhizoctonia solani, read-out: RHIZSO in vitro Growth Inhibition.
In assay [3] the test system is Mycosphaerella graminicola (Septoria tritici—SEPTTR). Briefly: In vitro fungal growth inhibition, Mycosphaerella graminicola (SEPTTR). Type of assay: cell-based. The settings on record: Zymoseptoria tritici, read-out: SEPTTR in vitro Growth Inhibition.
Assay [4] has as its system Stagonospora nodorum (Leptosphaeria nodorum—LEPTNO). Nature of the assay: In vitro fungal growth inhibition, Stagonospora nodorum (LEPTNO). The settings on record: Leptosphaeria, read-out: LEPTNO in vitro Growth Inhibition. Format: cell-based.
For another assay, the system named is Ustilago maydis (USTIMA). Nature of the assay: microbe, parasite or virus in culture. Type of assay: cell-based. To be noted: Mycosarcoma maydis, read-out: USTIMA in vitro Growth Inhibition.
The subject of assay [5] is Phytophthora infestans (PHYTIN). Briefly: microbe, parasite or virus in culture. Format: cell-based. To be noted: Phytophthora infestans, read-out: PHYTIN in vitro Growth Inhibition.
In assay [6] the test system is Phytophthora infestans—PHYTIN. Briefly: whole plant or invertebrate. Format: in vivo. To be noted: Phytophthora, in Solanum lycopersicum, 24 h, read-out: PHYTIN in vivo 1 Day Protectant.
Assay [7] has as its system Puccinia recondita—PUCCRT. Briefly: Brown Rust of Wheat, in vivo whole plant, 24 Hour Protectant. To be noted: for pest or weed control at 100 ppm: Puccinia, read-out: PUCCRT in vivo 1 Day Protectant.
Another assay has as its system Erysiphe graminis—ERYSGT. Nature of the assay: Powdery Mildew of Wheat, in vivo whole plant, 24 Hour Protectant. To be noted: for pest or weed control at 100 ppm: Erysiphe, control of fungal infection vs untreated plants, read-out: ERYSGT in vivo 1 Day Protectant.
Another assay deals with Septoria tritici—SEPTTR. Briefly: Leaf Blotch of Wheat, in vivo whole plant, 24 Hour Protectant. The settings on record: for pest or weed control at 100 ppm: Zymoseptoria tritici, 24 h, read-out: SEPTTR in vivo 1 Day Protectant.
In assay [8] the test system is Leptosphaeria nodorum—LEPTNO. Nature of the assay: Glume Blotch of Wheat, in vivo whole plant, 24 Hour Protectant. To be noted: for pest or weed control at 100 ppm: Leptosphaeria, read-out: LEPTNO in vivo 1 Day Protectant.
The mark [9] stands for this setting: 100 ppm spray, wheat, 24 hour protectant, control of fungal infection vs untreated plants.
Setting [10] is: 100 ppm spray, wheat, 24 hour protectant.
[11] abbreviates: 100 ppm spray, 24 hour protectant, wheat, control of fungal infection vs untreated plants.
Setting [12] is: 100 ppm spray, 24 hour protectant, wheat.
The mark [13] stands for this setting: 100 ppm spray, wheat, 24 hour protectant, % control of fungal infection vs untreated plants.
Where [14] appears, read: wheat plants sprayed at 100 ppm, inoculated after 24 hours, control of fungal infection vs untreated plants.
[15] abbreviates: wheat plants sprayed at 100 ppm, inoculated after 24 hours.

As to `COc1ccnc(C(=O)Nc2ccc(Sc3ccc(C(F)(F)F)cc3)cc2)c1O` [Compound 446], the inhibition at 25 ppm (in [1]; in assay [2]; in assay [3] (25 ppm in growth medium); in assay [4] (25 ppm in growth medium); with Ustilago maydis (USTIMA); in assay [5]) was less than 80% in each case. Also, the pest or weed control at 100 ppm in assay [6] was 25 to 74%; in [7] (setting [9]), less than 25%; in the assay with Erysiphe graminis—ERYSGT (setting [10]) it was less than 25%; in the assay with Septoria tritici—SEPTTR (setting [9]) it was less than 25%; in assay [8] (setting [9]) it was less than 25%.
`COc1ccnc(C(=O)NC2CC(C)(C)/C=C\CC(C)(C)C2)c1O` (stereo not drawn) [Compound 283]: the inhibition at 25 ppm (in assay [1]; in [2]; in assay [3] (25 ppm in growth medium); in assay [4] (25 ppm in growth medium); in the assay with Ustilago maydis (USTIMA); in assay [5]) was less than 80% throughout. The pest or weed control at 100 ppm in [6] is less than 25%; in assay [7] (setting [11]) it was 25 to 74%; with Erysiphe graminis—ERYSGT (setting [12]), less than 25%; in [8] (setting [11]) it was 25 to 74%. Also, the “SEPTTR in vivo 1 Day Protectant” value in the assay with Septoria tritici—SEPTTR (setting [11]) is “+ +”.
On to `COCCC(=O)Oc1c(OC)ccnc1C(=O)Nc1ccc(Sc2cccc(C(F)(F)F)c2)cc1` [Compound 712], for which the inhibition at 25 ppm in [1] is greater than 80%; in assay [2], less than 80%; in assay [3] (25 ppm in growth medium), greater than 80%; in assay [4] (25 ppm in growth medium), greater than 80%; in the assay with Ustilago maydis (USTIMA) it was less than 80%; in [5] it was less than 80%. Further, the pest or weed control at 100 ppm is less than 25% in [6] and 25 to 74% in [8] (setting [13]). Also, the “PUCCRT in vivo 1 Day Protectant” value in assay [7] (setting [13]) is “+ +”. For the same molecule, the “ERYSGT in vivo 1 Day Protectant” value in the assay with Erysiphe graminis—ERYSGT (setting [13]) was “+ +”. Also, the “SEPTTR in vivo 1 Day Protectant” value in the assay on Septoria tritici—SEPTTR (setting [13]) is “+ +”.
Consider `COc1ccccc1Oc1ccc(NC(=O)c2nccc(OC)c2O)cc1` [Compound 433], for which the inhibition at 25 ppm in assay [1] is less than 80%; in [2] it was less than 80%; in [3] (25 ppm in growth medium), greater than 80%; in assay [4] (25 ppm in growth medium), less than 80%; in the assay with Ustilago maydis (USTIMA), less than 80%; in [5], less than 80%. The pest or weed control at 100 ppm (in assay [6]; in [7] (setting [9]); with Erysiphe graminis—ERYSGT (setting [10]); in the assay with Septoria tritici—SEPTTR (setting [9]); in assay [8] (setting [9])) was less than 25% throughout.
For the molecule `COC(=O)C(Cc1ccc(OCc2ccccc2)cc1)NC(=O)c1nccc(OC)c1O` (single isomer, unassigned) [Compound 338], the inhibition at 25 ppm in [1] was less than 80%; in assay [2] it was less than 80%; in [3] (25 ppm in growth medium), less than 80%; in [4] (25 ppm in growth medium), less than 80%; with Ustilago maydis (USTIMA), greater than 80%; in assay [5], less than 80%. Moreover, the values for the pest or weed control at 100 ppm (in [6]; with Erysiphe graminis—ERYSGT (setting [10]); in the assay on Septoria tritici—SEPTTR (setting [9])) were less than 25%, less than 25% and 25 to 74%, respectively. The “PUCCRT in vivo 1 Day Protectant” value in assay [7] (setting [9]) is listed as “+ +”. Further, in assay [8] (setting [9]), the “LEPTNO in vivo 1 Day Protectant” value is “+ +”.
In the case of `COc1ccnc(C(=O)N[C@@H]2CC3CC2c2ccccc23)c1O` (stereo partly drawn) [Compound 290], the inhibition at 25 ppm in assay [1] is greater than 80%; in assay [2], greater than 80%; in assay [3] (25 ppm in growth medium), greater than 80%; in [4] (25 ppm in growth medium), greater than 80%; in the assay with Ustilago maydis (USTIMA), less than 80%; in [5], less than 80%. In addition, the pest or weed control at 100 ppm in assay [6] is less than 25%; in the assay with Erysiphe graminis—ERYSGT (setting [12]) it was 25 to 74%; in the assay on Septoria tritici—SEPTTR (setting [11]) it was 25 to 74%. In addition, the “PUCCRT in vivo 1 Day Protectant” value in assay [7] (setting [11]) was “+ +”. Moreover, in [8] (setting [11]), the “LEPTNO in vivo 1 Day Protectant” value is on record as “+ +”.
Regarding `CC(NC(=O)c1ccncc1O)c1ccc(Cl)cc1` (stereo not drawn) [Compound 509], the inhibition at 25 ppm (in assay [1]; in assay [2]; in [3] (25 ppm in the growth medium); in assay [4] (25 ppm in the growth medium); with Ustilago maydis (USTIMA); in assay [5]) was less than 80% throughout. For the same molecule, the pest or weed control at 100 ppm (in [6]; in assay [7] (setting [14]); with Erysiphe graminis—ERYSGT (setting [15]); in the assay on Septoria tritici—SEPTTR (setting [14]); in [8] (setting [14])) was less than 25% each time.
Turning to `CC(NC(=O)c1nc(Br)ccc1O)c1ccc(C(F)(F)F)cc1` (stereo not drawn) [Compound 488], the inhibition at 25 ppm was greater than 80% in assay [1]; less than 80% in assay [2]; less than 80% in assay [3] (25 ppm in the growth medium); less than 80% in [4] (25 ppm in the growth medium); less than 80% in the assay with Ustilago maydis (USTIMA); less than 80% in assay [5]. Moreover, the pest or weed control at 100 ppm in assay [6] is less than 25%; in assay [7] (setting [14]) it was 25 to 74%; in the assay with Erysiphe graminis—ERYSGT (setting [15]) it was less than 25%; in the assay with Septoria tritici—SEPTTR (setting [14]) it was 25 to 74%; in assay [8] (setting [14]), less than 25%.
`COc1ccnc(C(=O)NC(COC(=O)C(Cc2ccccc2)C(C)OC(=O)C(C)C)C(=O)OC(C)C)c1OC(C)=O` (stereo not drawn) [Compound 589]: the inhibition at 25 ppm (in assay [1]; in assay [2]; in [3] (25 ppm in the growth medium); in assay [4] (25 ppm in the growth medium); with Ustilago maydis (USTIMA); in assay [5]) was less than 80% each time. Also, the pest or weed control at 100 ppm in assay [6] was less than 25%; in assay [7] (setting [14]), 25 to 74%; in the assay with Erysiphe graminis—ERYSGT (setting [15]), less than 25%; with Septoria tritici—SEPTTR (setting [14]), 25 to 74%; in assay [8] (setting [14]), less than 25%.
On to `COc1ccnc(C(=O)NC2CC(C)(C)C=CC=C2C)c1OC(C)=O` (stereo not drawn) [Compound 579], for which the inhibition at 25 ppm (in assay [1]; in assay [2]; in assay [3] (25 ppm in the growth medium); in [4] (25 ppm in the growth medium); in the assay with Ustilago maydis (USTIMA); in [5]) was less than 80% each time. The pest or weed control at 100 ppm (in assay [6]; in assay [7] (setting [14]); in the assay with Erysiphe graminis—ERYSGT (setting [15]); in [8] (setting [14])) was less than 25% each time. In the assay on Septoria tritici—SEPTTR (setting [14]), the “SEPTTR in vivo 1 Day Protectant” value was “+ +”.
On to `CCCCCCCCCNC(=O)c1ncccc1O` [Compound 201], for which the inhibition at 25 ppm in assay [1] was greater than 80%; in assay [2] it was less than 80%; in assay [3] (25 ppm in growth medium), less than 80%; in [4] (25 ppm in growth medium), less than 80%; in the assay with Ustilago maydis (USTIMA), less than 80%; in assay [5], less than 80%. Further, the pest or weed control at 100 ppm (in assay [6]; in assay [7] (setting [11]); with Erysiphe graminis—ERYSGT (setting [12]); in the assay on Septoria tritici—SEPTTR (setting [11]); in assay [8] (setting [11])) was less than 25% throughout.
As to `COc1ccnc(C(=O)Nc2ccc(Oc3cccc(C)c3)cc2)c1O` [Compound 416], the inhibition at 25 ppm in [1] is greater than 80%; in assay [2], less than 80%; in assay [3] (25 ppm in growth medium) it was greater than 80%; in [4] (25 ppm in growth medium), less than 80%; in the assay on Ustilago maydis (USTIMA), less than 80%; in assay [5], less than 80%. Also, the pest or weed control at 100 ppm was less than 25% in assay [6]; 25 to 74% in [7] (setting [9]); less than 25% in the assay with Erysiphe graminis—ERYSGT (setting [10]); less than 25% with Septoria tritici—SEPTTR (setting [9]); less than 25% in assay [8] (setting [9]).

Broadly, the inhibition is how much of the control response was suppressed.

These data come from patent US6706740B2, “Fungicidal heterocyclic aromatic amides and their compositions, methods of use and preparation” (Dow AgroSciences LLC, priority 1999, dated 2004).
